Source: ChEMBL document CHEMBL4270577, “Synthesis, anticancer activity and molecular modeling studies of 1,2,4-triazole derivatives as EGFR inhibitors” (Eur J Med Chem, 2018)

Assays:
[1] = test system: CCRF-CEM; assay: Growth inhibition of human CCRF-CEM cells at 10 uM incubated for 48 hrs by sulforhodamine B assay relative to control; assay type: functional; settings: read-out: GI
[2] = test system: HT-29; assay: Growth inhibition of human HT-29 cells at 10 uM incubated for 48 hrs by sulforhodamine B assay relative to control; assay type: functional; settings: HT-29, 48 h, read-out: GI
[3] = test system: PANC-1; assay: Antiproliferative activity against human PANC1 cells after 48 hrs by propidium iodide staining-based fluorometric analysis; assay type: functional, cell-based; settings: PANC-1, 48 h
[4] = test system: HOP-62; assay: Growth inhibition of human HOP62 cells at 10 uM incubated for 48 hrs by sulforhodamine B assay relative to control; assay type: functional; settings: HOP-62, 48 h, read-out: GI
[5] = test system: OVCAR-8; assay: Growth inhibition of human OVCAR8 cells at 10 uM incubated for 48 hrs by sulforhodamine B assay relative to control; assay type: functional; settings: OVCAR-8, 48 h, read-out: GI
[6] = test system: NCI-H522; assay: Growth inhibition of human NCI-H522 cells at 10 uM incubated for 48 hrs by sulforhodamine B assay relative to control; assay type: functional; settings: NCI-H522, 48 h, read-out: GI
[7] = test system: NCI-H226; assay: Growth inhibition of human NCI-H226 cells at 10 uM incubated for 48 hrs by sulforhodamine B assay relative to control; assay type: functional; settings: NCI-H226, 48 h, read-out: GI
[8] = test system: HT-29; assay: Antiproliferative activity against human HT-29 cells after 48 hrs by propidium iodide staining-based fluorometric analysis; assay type: functional, cell-based; settings: HT-29, 48 h
[9] = test system: A498; assay: Growth inhibition of human A498 cells at 10 uM incubated for 48 hrs by sulforhodamine B assay relative to control; assay type: functional; settings: A498, 48 h, read-out: GI
[10] = test system: HOP-92; assay: Growth inhibition of human HOP92 cells at 10 uM incubated for 48 hrs by sulforhodamine B assay relative to control; assay type: functional; settings: HOP-92, 48 h, read-out: GI
[11] = test system: Hs-578T; assay: Growth inhibition of human Hs 578T cells at 10 uM incubated for 48 hrs by sulforhodamine B assay relative to control; assay type: functional; settings: read-out: GI
[12] = test system: MOLT-4; assay: Growth inhibition of human MOLT4 cells at 10 uM incubated for 48 hrs by sulforhodamine B assay relative to control; assay type: functional; settings: MOLT-4, 48 h, read-out: GI
[13] = test system: A549; assay: Growth inhibition of human A549/ATCC cells at 10 uM incubated for 48 hrs by sulforhodamine B assay relative to control; assay type: functional; settings: A549, 48 h, read-out: GI
[14] = test system: NCI-H460; assay: Antiproliferative activity against human H460 cells after 48 hrs by propidium iodide staining-based fluorometric analysis; assay type: functional, cell-based; settings: NCI-H460, 48 h
[15] = test system: T47D; assay: Growth inhibition of human T47D cells at 10 uM incubated for 48 hrs by sulforhodamine B assay relative to control; assay type: functional; settings: read-out: GI
[16] = test system: UO-31; assay: Growth inhibition of human UO31 cells at 10 uM incubated for 48 hrs by sulforhodamine B assay relative to control; assay type: functional; settings: UO-31, 48 h, read-out: GI
[17] = test system: SNB-19; assay: Growth inhibition of human SNB19 cells at 10 uM incubated for 48 hrs by sulforhodamine B assay relative to control; assay type: functional; settings: SNB-19, 48 h, read-out: GI
[18] = test system: UACC-257; assay: Growth inhibition of human UACC257 cells at 10 uM incubated for 48 hrs by sulforhodamine B assay relative to control; assay type: functional; settings: UACC-257, 48 h, read-out: GI
[19] = test system: SR; assay: Growth inhibition of human SR cells at 10 uM incubated for 48 hrs by sulforhodamine B assay relative to control; assay type: functional; settings: read-out: GI
[20] = test system: HL-60(TB); assay: Growth inhibition of human HL-60(TB) cells at 10 uM incubated for 48 hrs by sulforhodamine B assay relative to control; assay type: functional; settings: HL-60, 48 h, read-out: GI
[21] = test system: MIA PaCa-2; assay: Antiproliferative activity against human MIAPaCa2 cells after 48 hrs by propidium iodide staining-based fluorometric analysis; assay type: functional, cell-based; settings: MIA PaCa-2, 48 h
[22] = test system: NCI-H23; assay: Growth inhibition of human NCI-H23 cells at 10 uM incubated for 48 hrs by sulforhodamine B assay relative to control; assay type: functional; settings: NCI-H23, 48 h, read-out: GI
[23] = test system: PC-3; assay: Growth inhibition of human PC3 cells at 10 uM incubated for 48 hrs by sulforhodamine B assay relative to control; assay type: functional; settings: PC-3, 48 h, read-out: GI
[24] = test system: SNB-75; assay: Growth inhibition of human SNB75 cells at 10 uM incubated for 48 hrs by sulforhodamine B assay relative to control; assay type: functional; settings: SNB-75, 48 h, read-out: GI
[25] = test system: SK-OV-3; assay: Growth inhibition of human SKOV3 cells at 10 uM incubated for 48 hrs by sulforhodamine B assay relative to control; assay type: functional; settings: SK-OV-3, 48 h, read-out: GI
[26] = test system: U-251; assay: Growth inhibition of human U251 cells at 10 uM incubated for 48 hrs by sulforhodamine B assay relative to control; assay type: functional; settings: U-251, 48 h, read-out: GI
[27] = test system: SK-MEL-2; assay: Growth inhibition of human SK-MEL-2 cells at 10 uM incubated for 48 hrs by sulforhodamine B assay relative to control; assay type: functional; settings: SK-MEL-2, 48 h, read-out: GI
[28] = test system: TK-10; assay: Growth inhibition of human TK10 cells at 10 uM incubated for 48 hrs by sulforhodamine B assay relative to control; assay type: functional; settings: TK-10, 48 h, read-out: GI
[29] = test system: UACC-62; assay: Growth inhibition of human UACC62 cells at 10 uM incubated for 48 hrs by sulforhodamine B assay relative to control; assay type: functional; settings: UACC-62, 48 h, read-out: GI
[30] = test system: MCF7; assay: Growth inhibition of human MCF7 cells at 10 uM incubated for 48 hrs by sulforhodamine B assay relative to control; assay type: functional; settings: MCF7, 48 h, read-out: GI
[31] = test system: RPMI-8226; assay: Growth inhibition of human RPMI8226 cells at 10 uM incubated for 48 hrs by sulforhodamine B assay relative to control; assay type: functional; settings: RPMI-8226, 48 h, read-out: GI
[32] = test system: HCT-116; assay: Growth inhibition of human HCT116 cells at 10 uM incubated for 48 hrs by sulforhodamine B assay relative to control; assay type: functional; settings: HCT-116, 48 h, read-out: GI
[33] = test system: NCI-H322M; assay: Growth inhibition of human NCI-H322M cells at 10 uM incubated for 48 hrs by sulforhodamine B assay relative to control; assay type: functional; settings: read-out: GI
[34] = biological target: Tubulin (Homo sapiens) (UniProt P68371+Q9H4B7+P0DPH7+P68366+Q13509+Q71U36+P04350+Q3ZCM7+P07437+P68363+Q9BQE3+Q6PEY2+Q13885+Q9BVA1+Q9BUF5); assay: Inhibition of tubulin (unknown origin) polymerization assessed as polymerized tubulin level at 5 to 25 uM by fluorescence assay; assay type: protein-complex assay

SMILES	inhibition of growth at 10 µM [1]	inhibition of growth at 10 µM [2]	IC50 [3]	inhibition of growth at 10 µM [4]	inhibition of growth at 10 µM [5]	inhibition of growth at 10 µM [6]	IC50 [8]	inhibition of growth at 10 µM [11]	inhibition of growth at 10 µM [12]	inhibition of growth at 10 µM [13]	IC50 [14]	inhibition of growth at 10 µM [15]	inhibition of growth at 10 µM [16]	inhibition of growth at 10 µM [17]	inhibition of growth at 10 µM [18]	inhibition of growth at 10 µM [20]	IC50 [21]	inhibition of growth at 10 µM [23]	inhibition of growth at 10 µM [24]	inhibition of growth at 10 µM [25]	other results
C/C(=N/O)c1ccc(NC(=O)Cn2nc(-c3ccccc3)nc2N)cc1	6.77%	13.9%	8.7 µM	17.7%	15.3%	30%	4.7 µM	7.41%	11.5%	32%	4.4 µM	23%	15.4%	3.56%	34%	7.41%	5.7 µM	15.8%	22.5%	15.2%	inhibition of growth at 10 µM [7]: 3.91%; inhibition of growth at 10 µM [9]: 19.6%; inhibition of growth at 10 µM [10]: 5.82%; inhibition of growth at 10 µM [19]: 5.58%; inhibition of growth at 10 µM [22]: 3.98%; inhibition of growth at 10 µM [26]: 8.76%; inhibition of growth at 10 µM [27]: 5.32%
CC(=O)c1ccc(NC(=O)Cn2nc(C(F)(F)F)nc2N)cc1	6.78%	16%	4.5 µM	9.94%	13.3%	21%	3.8 µM	7.42%	7.46%	20%	3.7 µM	10.8%	13.7%	4.37%	14.6%	15.4%	4.7 µM	10.6%	12.5%	7.02%	inhibition of growth at 10 µM [7]: 8.52%; inhibition of growth at 10 µM [28]: 5.17%
CC(=O)c1ccc(NC(=O)Cn2nc(-c3ccc(Cl)cc3)nc2N)cc1	19.9%	10.4%	7.4 µM	15.1%	15.4%	28%	6.9 µM	6.29%	16.5%	22%	6.8 µM	21.6%	20.6%	8.53%	19.8%	7.98%	8.1 µM	20.3%	6.47%	22%	inhibition of growth at 10 µM [29]: 6.29%; inhibition of growth at 10 µM [30]: 5.48%; inhibition of growth at 10 µM [10]: 7.76%; inhibition of growth at 10 µM [31]: 3.17%; inhibition of growth at 10 µM [19]: 7.32%; inhibition of growth at 10 µM [32]: 4.68%; inhibition of growth at 10 µM [33]: 5.69%; inhibition of growth at 10 µM [26]: 5.94%; inhibition of growth at 10 µM [27]: 4.03%
CC[C@]1(O)C[C@H]2CN(CCc3c([nH]c4ccccc34)[C@@](C(=O)OC)(c3cc4c(cc3OC)N(C=O)[C@H]3[C@@](O)(C(=O)OC)[C@H](OC(C)=O)[C@]5(CC)C=CCN6CC[C@]43[C@@H]65)C2)C1																					Activity [34]: 722 a.u.
